Experimental data as given in PMC9368227, “Investigation of Radiotracer Metabolic Stability In Vitro with CYP-Overexpressing Hepatoma Cell Lines” (Cells, 2022).
“Also recorded” adds a separate entry of the source.

Key:
[1] = test system: CHO (Chinese hamster ovary) cells; assay: Radiotracer metabolic stability, CHO cells (negative control), radio-TLC; type: in vitro ADME; conditions: up to 2 h
Protocol: (§1) HepG2 cells were cultured in DMEM GlutaMax (Gibco, Paisley, UK) with 10% fetal calf serum (FCS) and with selective antibiotics (penicillin/streptomycin for wildtype, Zeocin (InvivoGen, San Diego, CA, USA) for CYP1A2, and Blasticidin (Gibco, Carlsbad, CA, USA) for CYP2C19 and CYP3A4 cultures). As a negative control, cultures of CHO cultivated in Ham’s F-12 medium (Gibco) with 10% FCS and 2 mM glutamine were added for the radiotracer experiments. Cells were handled under a laminar flow hood (Thermo Scientific^TM Safe 2020, Langenselbold, Germany) and were split once or twice a week by trypsinization. Cell cultures were stored horizontally in a humidified incubator (Heracell240i) at 37 °C and 5% CO2. During the time of experimental work, the utilized cell lines were regularly checked for mycoplasma. […] Cell density was determined with a cell counter (CASY® Model TT from Schärfe System, Reutlingen, Germany). […]
(§2) Incubations with radiotracer compounds were conducted, on the one hand, with radioactive ^18F-labeled compounds alone (time dependency) and, on the other hand, in the presence of 50 µM nonradioactive reference (carrier addition). For the investigation of a time-dependent metabolite formation, 2 µL aliquots were withdrawn from the supernatant, directly spotted onto the TLC plate, and analyzed as described above. […]

[2] = test system: HepG2 CYP1A2; assay: Competitive coincubation of [18F]1 with competitors, HepG2 CYP1A2; conditions: 1 h; without any additional substance; 120–125 nM [18F]1
Protocol: (§3) Radio thin-layer chromatography (radio-TLC) was carried out on reversed-phase TLC plates (ALUGRAM RP-18W/UV254 from Macherey-Nagel, Düren, Germany) with a mobile phase of 45% ACN in water containing 0.1% trifluoroacetic acid. The samples (2 µL) were spotted onto the TLC plate. The line of origin and the front line were labeled with 1/5 of the sample activity concentration. To track the Rf value of the intact radiotracer, each TLC was spotted with the intact tracer as reference in the middle. Detection of the activity signals was achieved after 10–30 min development on radioluminographic imaging plates (FUJIFILM, Tokyo, Japan) and subsequent readout with Fuji BAS 5000® or Amersham™ Typhoon™ from GE Healthcare (Uppsala, Sweden). The resulting chromatographic profile was analyzed and integrated with the help of AIDA Image Analysis Software (version 5.1). For data depiction, the fraction of each species (intact radiotracer, metabolite, [^18F]fluoride) was plotted.
(§4) Incubations were conducted for up to 2 h in a 96-well plate in KHB with a total incubation volume of 50 µL and an ethanol concentration of 0.4%. For the incubation with radiotracers, an activity of 100–200 kBq/well at the start of the experiment was used.
(§5) Our last interest within this study was to test if the tracer itself could function as an indicator for the conversion of other substrates acting via inhibition of or competition with the CYP enzymes. In this regard, alternative substrates were added to the incubation mixtures with [^18F]1. The investigated substrates covered testosterone, caffeine, progesterone, compound 3, tebufelone, and RWJ63556 [44] (10 µM for all substances). Furthermore, the influence of testosterone on the metabolic turnover of [^18F]1 was investigated over a concentration range of 1–50 µM.
Figure 7 Coincubation of [^18F]1 and different competitors with (A) HepG2 CYP1A2 and (B) HepG2 CYP2C19. […] Each competitor/inhibitor was incubated with [^18F]1 for 1 h followed by radio-TLC analysis. Activity concentrations of 94–197 kBq/well (1.9–3.9 MBq/mL) were used at start of experiment, which correspond to a concentration of 120–125 nM. Statistical analysis performed with Dunnett’s multiple comparison (post hoc test) according to the intact tracer amount (* p < 0.05; *** p < 0.001; **** p < 0.0001; n = 4).

[3] = test system: all utilized cell lines; assay: Activity distribution between supernatant, wash and cells, summary over all utilized cell lines; type: in vitro ADME; conditions: end of incubation period (2 h); range over cell lines
Protocol: as §1, with “CO2.” for “CO2. During the time of experimental work, the utilized cell lines were regularly checked for mycoplasma.”
Initially, CYP-overexpressing HepG2 and, as controls, HepG2 wildtype, as well as CHO (Chinese hamster ovary) cells, were incubated as an adhered monolayer in a 96-well plate with a relatively high activity concentration of [^18F]1 (25 MBq/mL; workflow according to Figure 1A, upper panel), and the supernatant and cell lysates were investigated by radio-TLC. […] As a result (Table 1), the main fraction of activity was found in the supernatant (64–91%), while only a negligible to low amount of activity was measured in cell lysates (1–16%). […]

[4] = test system: HepG2 wildtype; assay: Radiotracer metabolic stability, HepG2 wildtype, radio-TLC; type: in vitro ADME, human; conditions: up to 2 h
Protocol: CYP-overexpressing human hepatocellular carcinoma cells (HepG2) were previously generated on the basis of subcloning human CYP1A2 [18], CYP2C19 [20], and CYP3A4 [21] cDNA into a lentiviral expression vector. The cDNA expression in the resulting vector was controlled by the human cytomegalovirus (CMV) promoter. The lentivirus expression vectors were used to produce recombinant lentivirus particles according to standard methods to infect HepG2 cells. Infected cells were selected with 3 µg/mL blasticidin for CYP2C19 and CYP3A4 and 500 µg/mL zeocin for CYP1A2 overexpression 48 h after infection. Within 3–4 weeks, antibiotic-resistant cell colonies were picked to obtain single cell-derived HepG2 clones. For more detailed information on the generation procedure of CYP-overexpressing HepG2 cells, see Steinbrecht et al..
HepG2 cells were cultured in DMEM GlutaMax (Gibco, Paisley, UK) with 10% fetal calf serum (FCS) and with selective antibiotics (penicillin/streptomycin for wildtype, Zeocin (InvivoGen, San Diego, CA, USA) for CYP1A2, and Blasticidin (Gibco, Carlsbad, CA, USA) for CYP2C19 and CYP3A4 cultures). As a negative control, cultures of CHO cultivated in Ham’s F-12 medium (Gibco) with 10% FCS and 2 mM glutamine were added for the radiotracer experiments. […] Cell density was determined with a cell counter (CASY® Model TT from Schärfe System, Reutlingen, Germany). […]

[5] = test system: HepG2 CYP2C19; assay: Competitive coincubation of [18F]1 with competitors, HepG2 CYP2C19; conditions: 1 h; without additional substances; 120–125 nM [18F]1
Protocol: as §3, §4, §5
Figure 7 Coincubation of [^18F]1 and different competitors with (A) HepG2 CYP1A2 and (B) HepG2 CYP2C19. […] Each competitor/inhibitor was incubated with [^18F]1 for 1 h followed by radio-TLC analysis. […]

[6] = Radiotracer incubation in buffer only (control, without any cell line), radio-TLC; type: in vitro ADME
Protocol: HepG2 cells were cultured in DMEM GlutaMax (Gibco, Paisley, UK) with 10% fetal calf serum (FCS) and with selective antibiotics (penicillin/streptomycin for wildtype, Zeocin (InvivoGen, San Diego, CA, USA) for CYP1A2, and Blasticidin (Gibco, Carlsbad, CA, USA) for CYP2C19 and CYP3A4 cultures). As a negative control, cultures of CHO cultivated in Ham’s F-12 medium (Gibco) with 10% FCS and 2 mM glutamine were added for the radiotracer experiments. Cells were handled under a laminar flow hood (Thermo Scientific^TM Safe 2020, Langenselbold, Germany) and were split once or twice a week by trypsinization. Cell cultures were stored horizontally in a humidified incubator (Heracell240i) at 37 °C and 5% CO2. During the time of experimental work, the utilized cell lines were regularly checked for mycoplasma. Cells were seeded in duplicates into a 96-well plate (CellStar®) with a density of 3 × 10^5 cells/well and cultured until the next day at 37 °C and 5% CO2. Cell density was determined with a cell counter (CASY® Model TT from Schärfe System, Reutlingen, Germany). Before the addition of substrates, cells were washed twice with Krebs–Henseleit buffer (KHB). The HEPES-supplemented Krebs–Henseleit buffer (pH 7.4, KHB) was freshly prepared using HEPES (5.95 g/L), D-glucose (2.0 g/L), magnesium sulfate (0.141 g/L), potassium dihydrogenphosphate (0.16 g/L), potassium chloride (0.35 g/L), sodium chloride (6.9 g/L), calcium chloride dihydrate (0.373 g/L), and sodium bicarbonate (2.1 g/L), followed by adjustment to pH 7.4 with NaOH. […]
as §2

In the case of `Cc1ccc(-c2cc(C[18F])nn2-c2ccc(S(C)(=O)=O)cc2)cc1` [[^18F]1, 3-([^18F]fluoromethyl)-1-[4-(methylsulfonyl)phenyl]-5-(p-tolyl)-1H-pyrazole], the “Metabolic turnover / stability of radiotracer (in words)” value (“Metabolic turnover / stability” for short) [1] is reported as “mainly intact radiotracer was found; also recorded: no metabolic turnover”, the “Intact tracer [18F]1 remaining” value [2] is reported as 33% and the “Fraction of activity in cell lysates” value [3] is reported as 1–16%. The “Fraction of activity in supernatant” value [3] was 64–91%, the “Metabolic turnover / stability” value [4] was “mainly intact radiotracer was found” and the “Intact tracer [18F]1 remaining” value [5] was 11%. For the same compound, the “Metabolic turnover / stability” value ([6]; buffer only, up to 2 h, radio-TLC) was “no metabolic turnover” and the “Defluorination without additional enzymes in the incubation buffer (KHB)” value ([6]; reference incubation without any cell lines) was “to a minor extent”.
